Values of other authors as cited in patent publication US6884908B2, “Process for isolation of hepatoprotective agent “oleanolic acid” from Lantana camera” (Council of Scientific & Industrial Research, priority 2003, dated 2005).

Assays:
[1] = tested on: adjuvant induced arthritis; conditions: rats and mice
[2] = tested on: paw edema produced by dextran; conditions: rats and mice
[3] = tested on: CCl4-induced liver parenchymal cell necrosis, steatosis and degeneration; conditions: in vivo
[4] = tested on: azoxymethane-induced intestinal tumor; conditions: rats, 200 ppm in diet for 3 weeks
[5] = tested on: experimental hyperlipidemic rats; conditions: 50 mg/kg, P.O. for 9 days

CC1(C)CC[C@]2(C(=O)O)CC[C@]3(C)C(=CC[C@@H]4[C@@]5(C)CC[C@H](O)C(C)(C)[C@@H]5CC[C@]43C)[C@@H]2C1 [oleanolic acid, (3-O-β-hydroxy-olea-12-en-28-oic acid]
adjuvant induced arthritis [1]: suppressing | paw edema produced by dextran [2]: inhibiting | CCl4-induced liver parenchymal cell necrosis, steatosis and degeneration [3]: decreases | incidence and multiplicity of azoxymethane-induced intestinal tumor [4]: decreases the incidence and multiplicity | decrease of elevated blood cholesterol level [5]: more than 40% | decrease of elevated β-lipoprotein level [5]: more than 40%
